Data taken from paper PMC7984390 (Journal of Clinical Pharmacology, 2020).
Several values for one entry are separate records, joined by “and”; a condition that tells them apart may be missing. Equal values may be shown once. Entries after “also recorded” stand apart in the source; their conditions may differ. One block for each compound: values may come before it.

Legend:
[1] = Phase 1 study: iohexol plasma clearance as marker of GFR; assay type: in vivo, human; settings: for Iohexol C0, arithmetic mean (CV%) / Iohexol CLsyst, arithmetic mean (CV%): iohexol iv
[2] = Phase 1 study: endogenous markers of renal function; assay type: in vivo, human
Phase 1 study: safety = assay type: in vivo, human; settings: by treatment period; healthy subjects
[3] = cited from earlier work
[4] = combination treatment versus metformin alone
[5] = metformin alone or with tucatinib, n = 17
[6] = urine 0-24 h, metformin 850 mg oral, alone or with tucatinib, n = 17
[7] = treatment metformin + tucatinib, n = 17

GFR, arithmetic mean (CV%) ([1]; calculated from iohexol plasma clearance, n = 17): 94.99 (17.4) mL/min/1.73 m^2 | Mean eGFR derived from cystatin C, 12 hours postdose [2, 4]: 97.9 mL/min/1.73 m^2 | Mean eGFR derived from cystatin C, premetformin dose [2, 4]: 101.4 mL/min/1.73 m^2 | Mean CrCl 24 hours postdose ([2]; day 2 (after metformin alone) versus day 9 (in the presence of tucatinib)): 152.3 mL/min | Mean cystatin C concentration prior to metformin dosing ([2]; metformin alone (day 1) versus tucatinib coadministration (day 8)): 0.846 mg/L | Mean cystatin C concentration 12 hours postmetformin dosing ([2]; metformin alone versus metformin and tucatinib): 0.881 mg/L | Tmax (human, plasma, oral, 850 mg): 1.5 to 4 h | Cmax (human, plasma, po, 850 mg): 1300 ng/mL | Metformin CLrenal, arithmetic mean (CV%) (metformin 850 mg oral, alone or with tucatinib 300 mg twice daily, n = 17): 30.0 (27.0) L/h | Metformin CL/F, geometric LSM [5]: 102.0 L/h | Metformin VzF, geometric LSM [5]: 664.7 L | Ae0‐24, amount of metformin excreted unchanged in urine, arithmetic mean (CV%) [6]: 242.6 (26.5) mg | Fe0‐24, cumulative fraction of metformin excreted unchanged in urine, arithmetic mean (CV%) [6]: 28.54% and 28.5 (26.5) %
Compound: CN(C)C(=N)N=C(N)N [Metformin]
Proportion of subjects who experienced TEAEs (Phase 1 study: safety): 38.9%

Effect of tucatinib on GFR (iohexol clearance) ([1]; tucatinib 300 mg twice daily): unchanged; also recorded: unaffected | Effect of tucatinib on cystatin C-based eGFR ([2]; tucatinib 300 mg twice daily): unchanged | Effect of tucatinib on metformin Cmax (tucatinib 300 mg twice daily coadministered with metformin 850 mg): no effect
Compound: Cc1cc(Nc2ncnc3ccc(NC4=NC(C)(C)CO4)cc23)ccc1Oc1ccn2ncnc2c1 [Tucatinib]
Proportion of subjects who experienced TEAEs (Phase 1 study: safety): 33.3% | Patients with adverse event of elevated serum creatinine concentration ([3]; tucatinib arm (with trastuzumab and capecitabine), HER2CLIMB): 13.9% | Patients with increased creatinine as a laboratory abnormality ([3]; tucatinib arm, all grade 1 or 2): 33%

Iohexol C0, arithmetic mean (CV%) [1, 7]: 178.5 (21.5) µg/mL | Iohexol CLsyst, arithmetic mean (CV%) [1, 7]: 129.0 (22.0) mL/min | Iohexol C0, arithmetic mean (CV%) ([1]; treatment metformin, n = 17): 175.6 (18.0) µg/mL | Iohexol CLsyst, arithmetic mean (CV%) ([1]; treatment metformin, n = 17): 129.8 (22.7) mL/min
Compound: CC(=O)N(CC(O)CO)c1c(I)c(C(=O)NCC(O)CO)c(I)c(C(=O)NCC(O)CO)c1I (stereo not drawn) [Iohexol]
